pIC50: −log10 of the molar value.
Target: T1, Dimer of Gag-Pol polyprotein [489-587] (Human immunodeficiency virus 1, UniProt P12497)
T1 construct: 489-587
Assay: Protease Inhibition Assay
Conditions: pH 5.5; 30 °C

| SMILES | pIC50 |
| --- | --- |
| CC(C)(C)OC(=O)N[C@@H](Cc1ccccc1)[C@@H](O)C[C@]1(Cc2ccccc2)N=CC(C2C[C@H](CC(N)=O)c3ccccc32)C1=O (stereo partly drawn) [tert-butyl N-[(2S,3S)-4-[(2S)-2-benzyl-4-[(3R)-3-(carbamoylmethyl)-2,3-dihydro-1H-inden-1-yl]-3-oxo-2,3-dihydro-1H-pyrrol-2-yl]-3-hydroxy-1-phenylbutan-2-yl]carbamate] | 7.69 |
| NC(=O)O[C@@H]1Cc2ccccc2C1C1C=N[C@@](Cc2ccccc2)(C[C@H](O)[C@H](Cc2ccccc2)NC(=O)O[C@H]2CCOC2)C1=O (stereo partly drawn) [(3S)-oxolan-3-yl N-[(2S,3S)-4-[(2S)-2-benzyl-4-[(2R)-2-(carbamoyloxy)-2,3-dihydro-1H-inden-1-yl]-3-oxo-2,3-dihydro-1H-pyrrol-2-yl]-3-hydroxy-1-phenylbutan-2-yl]carbamate] | 8.70 |
| O=C(N[C@@H](Cc1ccccc1)[C@@H](O)C[C@]1(Cc2ccccc2)N=CC(C2c3ccccc3C[C@H]2O)C1=O)O[C@H]1CCOC1 (stereo partly drawn) [(3S)-oxolan-3-yl N-[(2S,3S)-4-[(2S)-2-benzyl-4-[(2R)-2-hydroxy-2,3-dihydro-1H-inden-1-yl]-3-oxo-2,3-dihydro-1H-pyrrol-2-yl]-3-hydroxy-1-phenylbutan-2-yl]carbamate] | 8.70 |
| CC(C)(C)CC(=O)N[C@@H](Cc1ccccc1)[C@@H](O)C[C@]1(Cc2ccccc2)N=CC(C2C[C@H](CC(N)=O)c3ccccc32)C1=O (stereo partly drawn) [N-[(2S,3S)-4-[(2S)-2-benzyl-4-[(3R)-3-(carbamoylmethyl)-2,3-dihydro-1H-inden-1-yl]-3-oxo-2,3-dihydro-1H-pyrrol-2-yl]-3-hydroxy-1-phenylbutan-2-yl]-3,3-dimethylbutanamide] | < 6.60 |
| O=C(N[C@@H](Cc1ccccc1)[C@@H](O)C[C@]1(Cc2ccccc2)N=CC(C2CNC(=O)c3ccccc32)C1=O)O[C@H]1CCOC1 (stereo partly drawn) [(3S)-oxolan-3-yl N-[(2S,3S)-4-[(2S)-2-benzyl-3-oxo-4-(1-oxo-1,2,3,4-tetrahydroisoquinolin-4-yl)-2,3-dihydro-1H-pyrrol-2-yl]-3-hydroxy-1-phenylbutan-2-yl]carbamate] | 8.24 |
| CC(C)(C)OC(=O)N[C@@H](Cc1ccccc1)[C@@H](O)C[C@]1(Cc2ccccc2)N=CC(C2c3ccccc3[C@H]3NC(=O)O[C@@H]23)C1=O (stereo partly drawn) [tert-butyl N-[(2S,3S)-4-[(2S)-4-[(3aR,8aS)-2-oxo-2H,3H,3aH,8H,8aH-indeno[1,2-d][1,3]oxazol-8-yl]-2-benzyl-3-oxo-2,3-dihydro-1H-pyrrol-2-yl]-3-hydroxy-1-phenylbutan-2-yl]carbamate] | 8.60 |
| CC(C)(C)CC(=O)N[C@@H](Cc1ccccc1)[C@@H](O)C[C@]1(Cc2ccccc2)N=CC(C2c3ccccc3[C@H]3NC(=O)O[C@@H]23)C1=O (stereo partly drawn) [N-[(2S,3S)-4-[(2S)-4-[(3aR,8aS)-2-oxo-2H,3H,3aH,8H,8aH-indeno[1,2-d][1,3]oxazol-8-yl]-2-benzyl-3-oxo-2,3-dihydro-1H-pyrrol-2-yl]-3-hydroxy-1-phenylbutan-2-yl]-3,3-dimethylbutanamide] | 7.02 |
| O=C(N[C@@H](Cc1ccccc1)[C@@H](O)C[C@]1(Cc2ccccc2)N=CC(C2c3ccccc3[C@H]3NC(=O)O[C@@H]23)C1=O)O[C@H]1CCOC1 (stereo partly drawn) [(3S)-oxolan-3-yl N-[(2S,3S)-4-[(2S)-4-[(3aR,8aS)-2-oxo-2H,3H,3aH,8H,8aH-indeno[1,2-d][1,3]oxazol-8-yl]-2-benzyl-3-oxo-2,3-dihydro-1H-pyrrol-2-yl]-3-hydroxy-1-phenylbutan-2-yl]carbamate] | 9.36 |
